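Cells were grown in 96-well plates and exposed to each compound for 48 hours at five concentrations; endpoints were interpolated linearly between bracketing concentrations, or set to the highest concentration if not reached. Here, GI50 denotes the concentration required for 50% inhibition of growth. Definition used: TGI = concentration required for complete inhibition of growth.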 A value given as a limit tells only on which side of the number the result lay.

Holding throughout (assay): inhibition of tumour cell growth, NCI panel, 48 h
Assay [1] relates to M14 melanoma.
For assay [2], the system named is HT29 colon.
Assay [3] relates to SF-295 CNS.
Assay [4] deals with OVCAR-8 ovarian.
Assay [5] deals with KM12 colon.
Assay [6] relates to SW-620 colon.
The test system of assay [7] is RXF 393 renal.
For assay [8], the system named is K-562 leukemia.

Take `O=C(O)CSc1n[nH]c(/C=C/c2ccccc2)n1`: the TGI in assay [1], in assay [2], in assay [3], in assay [4], in assay [5] and in assay [6] was greater than 100 µM each time. The TGI in assay [7] and in assay [8] was greater than 100 µM in each case.
Regarding `OCC(O)CC[CH2][Sn]([c]1ccccc1)([c]1ccccc1)[c]1ccccc1` (stereo not given), the GI50 is 14.2 µM in assay [1]; 19 µM in assay [2]; 11.3 µM in assay [3]; 15.7 µM in assay [4]; 13.9 µM in assay [5]; 13.2 µM in assay [6]. Also, the GI50 is 4.32 µM in assay [7] and 8.59 µM in assay [8]. The TGI was found to be 31 µM in assay [1]; 33.4 µM in assay [2]; 23.3 µM in assay [3]; 31.5 µM in assay [4]; 29.8 µM in assay [5]; 26.9 µM in assay [6]. Moreover, the TGI in assay [7] was 19.7 µM; in assay [8], 23.8 µM.
Regarding `COC(=O)N1[C@H]2Cc3c(OC)c(C)c(OC)c(OC)c3[C@@H]1/C(=C\c1cc(OC)c(OC)c(C)c1OC)N(Cc1ccccc1)C2=O`, the TGI in assay [1], in assay [2], in assay [3], in assay [4], in assay [5] and in assay [7] was greater than 100 µM each time. Besides, the TGI in assay [8] was greater than 100 µM.
Turning to `COc1cc(OC)cc(N2CCC(c3c(N)nc(N)nc3Cl)CC2)c1`, the TGI in assay [1], in assay [3], in assay [4], in assay [5], in assay [6] and in assay [7] was greater than 100 µM throughout. In assay [8], this compound returned a TGI greater than 100 µM.
`CCCCOC1CC2(c3ccc(OC)cc3)C(=O)c3ccccc3N2O1` (stereo not given): the TGI in assay [1] is greater than 100 µM; in assay [3] it was greater than 100 µM; in assay [4] it was greater than 100 µM; in assay [5], greater than 100 µM; in assay [6] it was greater than 100 µM; in assay [7] it was 50 µM. In assay [8], this compound displayed a TGI greater than 100 µM.
Take `CC(NC(=O)c1ccccc1)C(=O)N(Cc1ccccc1)Cc1ccccc1` (stereo not given): the TGI in assay [1] was 39.1 µM; in assay [2] it was greater than 100 µM; in assay [3] it was 75 µM; in assay [5] it was 58 µM; in assay [6] it was greater than 100 µM; in assay [7], 98.4 µM. Besides, the TGI in assay [8] is 43.5 µM.
As to `COc1nc(OC)c2c(=O)oc(-c3ccccc3)cc2n1`, the TGI in assay [2], in assay [3], in assay [4], in assay [5], in assay [6] and in assay [7] was greater than 100 µM in each case. In assay [8], the TGI was greater than 100 µM.
For `O=C(NC1CCCCC1)c1c(O)[nH]c(=S)[nH]c1=O`, the TGI in assay [1], in assay [2], in assay [3], in assay [4], in assay [5] and in assay [6] was greater than 100 µM each time.
With `N#C/C(=C\c1ccc(CP(=O)(O)O)cc1)C(N)=O`, the TGI in assay [1], in assay [2], in assay [3], in assay [4], in assay [5] and in assay [6] was greater than 100 µM in each case. The same compound gave a TGI in assay [8] greater than 100 µM.
For the compound `C=C1C(=O)O[C@@H]2C[C@]3(C)[C@@H](C[C@H]12)[C@](C)(O)CC[C@@H]3O`, the TGI in assay [1], in assay [2], in assay [3], in assay [4], in assay [5] and in assay [6] was greater than 100 µM in each case. Moreover, the TGI in assay [8] is greater than 100 µM.
For the compound `CC(=O)O[C@]1(C(C)=O)CC[C@H]2[C@@H]3C[C@H](C)C4=CC(=O)C=C[C@]4(C)[C@@]3(F)[C@@H](O)C[C@@]21C`, the TGI in assay [1], in assay [2], in assay [3], in assay [5], in assay [6] and in assay [7] was greater than 100 µM throughout. Further, in assay [8], the TGI was greater than 100 µM.
As to `[Cu+2].[Cu+2].[O-]c1ccccc1C=Nc1ccccc1[O-].[O-]c1ccccc1C=Nc1ccccc1[O-]`, the GI50 in assay [1] is 4.45 µM; in assay [2], 6.05 µM; in assay [3], 8.01 µM; in assay [4], 8.16 µM; in assay [5], 10 µM; in assay [6] it was 6.61 µM. Besides, the GI50 in assay [8] was 4.07 µM. For the same compound, the TGI in assay [1] came out at 15.3 µM; in assay [2], 27.4 µM; in assay [3] it was 27.6 µM; in assay [4], 31.6 µM; in assay [5], 27 µM; in assay [6], 26.2 µM. This compound showed a TGI in assay [8] of 52.9 µM.

Source of the values: PubChem BioAssay (NCI).
